Measured values from PMC4266338 (ACS Medicinal Chemistry Letters, 2014).
Values belong to the molecule of their own block, whether it stands above or below them.

Assays:
[1] = target: CHOP; assay: CHO-CHOP-luciferase reporter assay; type: cell-based, Chinese hamster; conditions: for UPR CHOP AC50 ± SEM: CHO-CHOP-luciferase cells, averaged from n ≥ 4 experiments
[2] = test system: HN30; assay: OSCC proliferation assay HN30; type: cell-based; conditions: Homo sapiens, 24 h, read-out: potency, dose–response proliferation assay
[3] = Chemical stability toward thiol nucleophiles; type: physicochemical; conditions: 10 μM in PBS pH 7.4, 1% DMSO, 8 h, room temperature
[4] = test system: H460/T800; assay: OSCC proliferation assay H460/T800; type: cell-based, human; conditions: H460/T800, 24 h
[5] = test system: human tumor cell line panel (NCI-60); assay: NCI-60 human tumor cell line panel; type: cell-based; conditions: colon, melanoma, and renal cancer cell lines
[6] = test system: A253; assay: OSCC proliferation assay A253; type: cell-based, human; conditions: A253, 24 h
[7] = Hepatic microsome stability, human; type: in vitro ADME; conditions: 37°C, after 1 hr
[8] = PAMPA permeability; type: in vitro ADME; conditions: donor pH 5.0, 6.2, and 7.4
[9] = test system: HN6; assay: OSCC proliferation assay HN6; type: cell-based, human; conditions: HN6, 24 h
[10] = test system: Chop knockout murine embryonic fibroblast (MEF) cells; assay: MEF proliferation assay, Chop knockout; type: cell-based, mouse; conditions: concentrations up to 20 μM, 24 h, Figure S1
[11] = Mouse pharmacokinetics IV and IP; conditions: male CD-1 mice, IV 2 mg/kg single dose
[12] = Aqueous solubility; type: physicochemical; conditions: through a biologically relevant pH range
[13] = Hepatic microsome stability, mouse; type: in vitro ADME; conditions: 37°C, after 1 hr

SMILES: O=C(Nc1ccc(S(=O)(=O)N2CCOCC2)cc1)c1ccco1 [Compound 27]
UPR CHOP AC50 ± SEM [1]: loss of activity

SMILES: Cc1ccc(C(=O)Nc2ccc(S(=O)(=O)N3CCOCC3)cc2)o1 [Compound 28]
UPR CHOP AC50 ± SEM [1]: loss of activity

SMILES: O=C(Nc1ccc(S(=O)(=O)N2CCC(Cl)CC2)cc1)c1ccc([N+](=O)[O-])o1 [Compound 12]
EC50 [2]: 9 ± 1.1 µM | compound remaining with dithiothreitol (DTT) ([3]; 5-fold excess DTT): 100% | compound remaining with glutathione (GSH) ([3]; 5-fold excess GSH): 100% | sensitivity, dose–response proliferation assay [4]: more resistant | growth inhibition potency [5]: low micromolar potency | sensitivity, dose–response proliferation assay [6]: more resistant | Hepatic Microsome Stability percent remaining [7]: almost completely metabolized | PAMPA permeability in words [8]: good permeability | sensitivity, dose–response proliferation assay [9]: more resistant | effect on Chop-null MEF cells [10]: unaffected | IV dose cleared from circulation within [11]: ≤ 30 min | Aqueous stability in PBS and pION buffer [12]: 8.7–9.7 μM | Hepatic Microsome Stability percent remaining [13]: almost completely metabolized

SMILES: O=C(Nc1ccc(S(=O)(=O)N2CCNCC2)cc1)c1ccc([N+](=O)[O-])o1 [Compound 8]
loss of activity ([1]; CHOP activation relative to hit 3): ~14 fold

SMILES: O=C(Nc1ccc(S(=O)(=O)N2CCC(O)CC2)cc1)c1ccc([N+](=O)[O-])o1 [Compound 9]
UPR CHOP AC50 ± SEM [1]: on par with activity observed with hit 3

Results, then the molecule that gave them:

UPR CHOP AC50 ± SEM [1]: loss of activity
SMILES: O=C(Nc1ccc(S(=O)(=O)N2CCOCC2)cc1)c1ccc(Br)o1 [Compound 29]

UPR CHOP AC50 ± SEM [1]: loss of activity
SMILES: CC1(C)CCN(S(=O)(=O)c2ccc(NC(=O)c3ccc(C(F)(F)F)o3)cc2)CC1 [Compound 30]
